According to patent US11980633B2, “Method for treating cancer using a combination of DNA-damaging agents and DNA-PK inhibitors” (Vertex Pharmaceuticals Incorporated, priority 2016, dated 2024):

Assays:
Type in all cases: cell-based
[1] = test system: primary human pancreatic tumors; test: TCA: Compound B-1 with gemcitabine, primary pancreatic tumors
Protocol: (§1) In both studies, cell viability was assessed after 6 days in culture. Statistical analysis of the combination matrix was performed to assess whether synergy, additivity, or antagonism of the combination treatments were observed.
(§2) Materials: Primary patient samples (See Tables 16 and 17, below) were excised from mice when they reached 500 mg to 1000 mg in size and processed immediately, or after overnight shipment. Tumors were serially passaged by subcutaneous implantation of 50 mg to 150 mg fragments into the flanks of immunocompromised (nude) mice. Tumors were used within the first 5 or 7 passages.
(§3) Tumor Chemosensitivity Assay (TCA): Primary tumor samples were grown and serially passaged in immunocompromised mice. Tumors were mechanically dissociated into small fragments (1 mm to 2 mm) with scalpels in phosphate buffered saline (PBS or RPMI) and centrifuged at 200×g for 5 minutes at room temperature in 50 mL centrifuge tubes. Samples were resuspended in 10 mL of cell dissociation reagent and enzymatically digested with mechanical agitation for 1 to 3 hours at 37° C., 5% CO2 to a single cell suspension. Ten mL of complete RPMI-1640 media was added to the cell mixture and pipetted up and down 4 to 5 times. The mixture was then passed through a 70 μm or 100 μm mesh strainer to remove undigested tumor. The filtrate was then centrifuged 200×g for 5 minutes at room temperature and resuspended in 20 mL complete RPMI-1640. This cell suspension was slowly layered onto 20 mL of room temperature Histopaque and centrifuged at 400×g for 15 minutes at room temperature without a brake. The interface was transferred to a new 50 mL centrifuge tube and 15 mL of complete RPMI-1640 was added. This suspension was centrifuged at 200×g at room temperature, and the resulting pellet was resuspended in 10 mL of complete PC-1 media, except for pancreatic tumors in which case Pancreatic Medium was used. Cells were diluted in Trypan blue, and viable cells that excluded the dye were counted. Only the larger, tumor cells were included in the cell count. Cells were diluted in complete PC-1 or Pancreatic media, as appropriate for the cells, and were plated at 15,000 to 20,000 cells per well in 100-135 μL in ultra-low attachment U-bottom plates.
(§4) Compound Addition: For these studies, a 10 mM stock of the DNA-PK inhibitor (Compound B-1 or Compound B-2) was made in DMSO and used to add to cells from most tumors with HP D300 Digital Dispenser (Tecan US, Morrisville, NC, USA), or diluted into the appropriate media (PC-1 or pancreatic media) as a 5-10× stock and added to cells (OVX001 and ENX001, 005). PC-1, pancreatic media, and chemotherapeutics were also added so that final well volume was 150 μL. Doxorubicin was made as DMSO stock of 1 or 10 mM and added to cells for most tumors with HP D300 Digital Dispenser, or diluted into PC-1 as 5-10× stock and added to cells (OVX001 and ENX001, 005). Cisplatin (cis-diammine platinum(II), dichloride) was prepared fresh to 10 mM in warm (60° C.) distilled water and diluted in PC-1 as a 5-10× stock. […] Different starting concentrations, dose ranges, and number of doses were used for each experiment based on the response data available at the time.
(§5) For bleomycin experiments, combinations with Compound B-1 at all concentrations were run in triplicate. A 6×3 matrix was designed on one plate, consisting of a 2-point concentration range of 0.73 μM and 2.2 μM Compound B-1 plus no treatment control, in 3 columns each of 6 wells. Bleomycin (plus ‘no treatment’ control) was added to 9 wells in rows of this plate. Similar 6×3 matrices were set up for additional agents with different starting concentrations for compound dilutions. For cisplatin experiments the starting concentration was 30 μM which was diluted 1:3. […] For doxorubicin hydrochloride experiments the starting concentration was 5 μM doxorubicin which was diluted 1:3. For gemcitabine experiments the starting concentration was 5 μM gemcitabine which was diluted 1:3. […]

[2] = test system: primary human tumors (esophageal, gastric); test: TCA: Compound B-1 with carboplatin, primary tumors
Protocol: as §1, §2, §3, §4, §5

[3] = test system: primary human tumors (esophageal, gastric); test: TCA: Compound B-1 with paclitaxel, primary tumors
Protocol: as §1, §2, §3, §4, §5

Compound: CNC(=O)c1ccnc2c([C@H](C)CNc3cc(-c4cnc(C)nc4)ncn3)cccc12 [Compound B-1]
- tumors that showed additivity ([1]; 2 of 4 pancreatic tumors): 50%
- tumors that showed antagonism ([1]; 2 of 4 pancreatic tumors): 50%
- Average Bliss score ([1]; tumor P110325, Pancreatic): −9
- Synergy/Additivity/Antagonism ([1]; tumor P110325, Pancreatic): Antagonistic (less than −5 are considered antagonistic)
- Average Bliss score ([1]; tumor P110413, Pancreatic): −1
- Synergy/Additivity/Antagonism ([1]; tumor P110413, Pancreatic): Additive (Values between 5 and −5 are considered additive)
- Average Bliss score ([1]; tumor P110504, Pancreatic): −6
- Synergy/Additivity/Antagonism ([1]; tumor P110504, Pancreatic): Antagonistic (less than −5 are considered antagonistic)
- Average Bliss score ([1]; tumor P110603, Pancreatic): −2
- Synergy/Additivity/Antagonism ([1]; tumor P110603, Pancreatic): Additive (Values between 5 and −5 are considered additive)
- tumors that showed synergy or additivity ([2]; 5 tumors): 100%
- Average Bliss score ([2]; tumor ESX005, Esophageal): 3
- Synergy/Additivity/Antagonism ([2]; tumor ESX005, Esophageal): Additive (Values between 5 and −5 are considered additive)
- Average Bliss score ([2]; tumor ESX008, Esophageal): 5
- Synergy/Additivity/Antagonism ([2]; tumor ESX008, Esophageal): Synergistic (greater than 5 are considered synergistic)
- Average Bliss score ([2]; tumor GAX001, Gastric): 2
- Synergy/Additivity/Antagonism ([2]; tumor GAX001, Gastric): Additive (Values between 5 and −5 are considered additive)
- Average Bliss score ([2]; tumor GAX007, Gastric): 4
- Synergy/Additivity/Antagonism ([2]; tumor GAX007, Gastric): Additive (Values between 5 and −5 are considered additive)
- Average Bliss score ([2]; tumor GAX027, Gastric): 4
- Synergy/Additivity/Antagonism ([2]; tumor GAX027, Gastric): Additive (Values between 5 and −5 are considered additive)
- tumors that showed additivity ([3]; four of 5 tumors): 80%
- tumors that showed antagonism ([3]; one of 5 tumors): 20%
- Average Bliss score ([3]; tumor ESX005, Esophageal): −3
- Synergy/Additivity/Antagonism ([3]; tumor ESX005, Esophageal): Additive (Values between 5 and −5 are considered additive)
- Average Bliss score ([3]; tumor ESX008, Esophageal): −5
- Synergy/Additivity/Antagonism ([3]; tumor ESX008, Esophageal): Antagonistic (less than −5 are considered antagonistic)
- Average Bliss score ([3]; tumor GAX001, Gastric): −1
- Synergy/Additivity/Antagonism ([3]; tumor GAX001, Gastric): Additive (Values between 5 and −5 are considered additive)
- Average Bliss score ([3]; tumor GAX007, Gastric): −4
- Synergy/Additivity/Antagonism ([3]; tumor GAX007, Gastric): Additive (Values between 5 and −5 are considered additive)
- Average Bliss score ([3]; tumor GAX027, Gastric): 1
- Synergy/Additivity/Antagonism ([3]; tumor GAX027, Gastric): Additive (Values between 5 and −5 are considered additive)
